Data on 45 compounds can be found in ChEMBL document CHEMBL1759996, “Design and synthesis of pyridin-2-yloxymethylpiperidin-1-ylbutyl amide CCR5 antagonists that are potent inhibitors of M-tropic (R5) HIV-1 replication” (Bioorg Med Chem Lett, 2011).

Series [1] in a line: Cytotoxicity against human PBMC. It counts as cell-based.
The test system of series [2] is Human immunodeficiency virus 1. Kind of series: Antiviral activity against Human immunodeficiency virus 1 BAL infected in human PBMC assessed as inhibition of viral replication by p24 antigen specific ELISA. It counts as functional, organism-based. A general note: ELISA stands for enzyme-linked immunosorbent assay.
For series [3], the target named is C-C chemokine receptor type 5 (Homo sapiens, UniProt P51681). In words: Displacement of […] from CCR5 expressed in HEK293F cells. It counts as cell-based.
Sequence of C-C chemokine receptor type 5 (P51681 whole entry): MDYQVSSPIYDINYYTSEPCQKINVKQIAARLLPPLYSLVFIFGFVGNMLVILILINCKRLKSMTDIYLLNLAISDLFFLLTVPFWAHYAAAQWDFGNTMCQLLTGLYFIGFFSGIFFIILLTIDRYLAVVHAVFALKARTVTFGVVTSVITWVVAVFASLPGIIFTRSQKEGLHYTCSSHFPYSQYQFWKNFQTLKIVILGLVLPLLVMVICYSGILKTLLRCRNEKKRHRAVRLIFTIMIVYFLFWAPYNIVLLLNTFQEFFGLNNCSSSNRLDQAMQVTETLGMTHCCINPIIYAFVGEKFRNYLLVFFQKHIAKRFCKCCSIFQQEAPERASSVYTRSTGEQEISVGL

For the compound `CC(CCNC(=O)c1c(Cl)cncc1Cl)N1CCC(C(Oc2ccccn2)c2ccc(Br)cc2)CC1` (mixture of isomers), in series [1], it took 33.7 µM to reach half-maximal cytotoxicity (CC50). Also, the results for the IC50 in series [2] and in series [3] were 3.76 µM and 0.14 µM, respectively.
Take `CCO/N=C(/c1ccc(Br)cc1)C1CCN(CCNC(=O)c2c(C)cc[n+]([O-])c2C)CC1`: in series [1], it took 196 µM to reach half-maximal cytotoxicity (CC50). In addition, the IC50 (in general, the concentration needed to halve the response being measured) in series [2] is > 39.2 µM.
`CC(CCNC(=O)c1c(Cl)cncc1Cl)N1CCC(C(Oc2ccccc2Cl)c2ccc(C(F)(F)F)cc2)CC1` (mixture of isomers): the CC50 – broadly, the concentration at which the toxic effect on the cells reaches its halfway point – in series [1] worked out at 4.4 µM. Besides, the IC50 is > 1.27 µM in series [2] and 0.12 µM in series [3].
Compound `CC(CCNC(=O)c1c(Cl)cncc1Cl)N1CCC(C(Oc2cccc(C(F)(F)F)n2)c2ccc(C(F)(F)F)cc2)CC1` (mixture of isomers) gave a CC50 in series [1] of 13.5 µM. Moreover, the IC50 in series [2] worked out at 0.06 µM; in series [3], 0.13 µM.
The like results for `CCO/N=C(/c1ccc(Br)cc1)C1CCN(C(C)CCNC(=O)c2c(C)cc[n+]([O-])c2C)CC1` (stereo not given) were, in that order, > 178 µM, 2.54 µM and 0.29 µM.
Consider `CC(CCNC(=O)c1c(Cl)cncc1Cl)N1CCC(C(Oc2cccc(C#N)c2)c2ccc(C(F)(F)F)cc2)CC1` (mixture of isomers), for which the CC50 in series [1] was determined as 15.7 µM. Also, the half-inhibitory concentration (IC50) in series [2] came to 0.48 µM; in series [3], 0.05 µM.
The like results for `CC(CCNC(=O)c1c(Cl)cncc1Cl)N1CCC(C(Oc2cccc(C#N)n2)c2ccc(C(F)(F)F)cc2)CC1` (mixture of isomers) were, in that order, 15.7 µM, 0.009 µM and 0.04 µM.
The like results for `Cc1cccc(OC(c2ccc(C(F)(F)F)cc2)C2CCN(C(C)CCNC(=O)c3c(Cl)cncc3Cl)CC2)n1` (mixture of isomers) were, in that order, 6.7 µM, 0.17 µM and 0.04 µM.
Turning to `CC(CCNC(=O)c1c(Cl)cncc1Cl)N1CCC(C(Oc2ccccc2C(F)(F)F)c2ccc(C(F)(F)F)cc2)CC1` (mixture of isomers), in series [1], the cytotoxic concentration (CC50) is 12.5 µM. Moreover, the IC50 in series [2] is 0.1 µM.
In series [1], `CC(CCNC(=O)c1c(Cl)cncc1Cl)N1CCC(C(Oc2ccccn2)c2ccc(C(F)(F)F)cc2)CC1` (mixture of isomers) registered a CC50 of 34.1 µM. The IC50 in series [2] was found to be 0.13 µM; in series [3], 0.03 µM.
The matching figures for `CC(CCNC(=O)c1c(Cl)cncc1Cl)N1CCC(C(Oc2ccccc2)c2ccc(C(F)(F)F)cc2)CC1` (mixture of isomers): 6.8 µM, 1.27 µM and 0.05 µM.
In turn, `CC(CCNC(=O)c1c(Cl)cncc1Cl)N1CCC(C2(c3ccc(C(F)(F)F)cc3)Oc3ccccc3O2)CC1` (stereo not given) gave a CC50 in series [1] of 7.8 µM. In addition, the IC50 in series [2] turned out to be 0.01 µM; in series [3], 0.03 µM.
The like results for `Cc1ccc(OC(c2ccc(Br)cc2)C2CCN(C(C)CCNC(=O)c3c(Cl)cncc3Cl)CC2)nc1` (mixture of isomers) were, in that order, 32.2 µM, > 1.29 µM and 3.8 µM.
The matching figures for `CC(CCNC(=O)c1c(Cl)cncc1Cl)N1CCC(C(Oc2cccnc2)c2ccc(Br)cc2)CC1` (mixture of isomers): 32.5 µM, 3.3 µM and 0.97 µM.
The matching figures for `CCO/N=C(/c1ccc(Br)cc1)C1CCN(C2(CCNC(=O)c3c(Cl)cncc3Cl)CC2)CC1`: 33 µM, > 6.6 µM and 21.4 µM.
In turn, `COC(=O)c1cccc(OC(c2ccc(C(F)(F)F)cc2)C2CCN(C(C)CCNC(=O)c3c(Cl)cncc3Cl)CC2)c1` (mixture of isomers) showed a CC50 in series [1] of 15.2 µM. Also, in series [2], the IC50 was > 6.26 µM.
Take `CCO/N=C(/c1ccc(Br)cc1)C1CCN(C(C)CCN(C)C(=O)c2c(C)cc[n+]([O-])c2C)CC1` (stereo not given): the half-maximal cytotoxic concentration (CC50) in series [1] was > 183 µM. Moreover, the IC50 in series [2] was > 36.5 µM; in series [3] it was 5.62 µM.
As for `CC(CCNC(=O)c1c(Cl)cncc1Cl)N1CCC(C(O)c2ccc(Br)cc2)CC1` (stereo not given), in series [1], the midpoint of cytotoxicity, the CC50, lay at 198 µM. For the same compound, the values for the IC50 in series [2] and in series [3] were > 39.6 µM and 3.39 µM, respectively.
The like results for `Cc1cccnc1OC(c1ccc(Br)cc1)C1CCN(C(C)CCNC(=O)c2c(Cl)cncc2Cl)CC1` (mixture of isomers) were, in that order, 32.1 µM, 0.34 µM and 0.19 µM.
As to `CC(CCNC(=O)c1c(Cl)cncc1Cl)N1CCC(C(Oc2ccncc2)c2ccc(Br)cc2)CC1` (mixture of isomers), it took 31.2 µM to reach half-maximal cytotoxicity in series [1] (CC50). Besides, in series [2], the IC50 is > 0.24 µM.
In series [1], `CCO/N=C(/c1ccc(Br)cc1)C1CCN(CCCNC(=O)c2c(C)cc[n+]([O-])c2C)CC1` registered a half-maximal cytotoxic concentration (CC50) of 7.5 µM. For the same compound, the half-inhibitory concentration (IC50) in series [2] was > 1.5 µM; in series [3] it was 0.18 µM.
The matching figures for `CC(CCNC(=O)c1c(Cl)cncc1Cl)N1CCC(N(Cc2ccccc2)c2ccc(Br)cc2)CC1` (stereo not given): 4.28 µM, 0.22 µM and 0.03 µM.
The like results for `CC(CCNC(=O)c1c(Cl)cncc1Cl)N1CCC(C(Oc2cccc(Cl)c2)c2ccc(C(F)(F)F)cc2)CC1` (mixture of isomers) were, in that order, 8.1 µM, 0.07 µM and 0.06 µM.
The matching figures for `CC(CCNC(=O)c1c(Cl)cncc1Cl)N1CCC(C(Oc2cc(Cl)ccn2)c2ccc(C(F)(F)F)cc2)CC1` (mixture of isomers): 4.26 µM, 0.43 µM and 0.07 µM.
The compound `CC(CCNC(=O)c1c(Cl)cncc1Cl)N1CCC(C(Oc2cccc(F)c2)c2ccc(C(F)(F)F)cc2)CC1` (mixture of isomers) had a CC50 in series [1] of 5.4 µM. The IC50 was 0.23 µM in series [2] and 0.04 µM in series [3].
The matching figures for `CC(CCNC(=O)c1c(Cl)cncc1Cl)N1CCC(C(Oc2cccc(Cl)n2)c2ccc(S(C)(=O)=O)cc2)CC1` (mixture of isomers): > 29.5 µM, 0.004 µM and 0.01 µM.
The like results for `CC(CCNC(=O)c1c(Cl)cncc1Cl)N1CCC(C(Oc2cccc(Cl)n2)c2ccc(OC(F)(F)F)cc2)CC1` (mixture of isomers) were, in that order, 6 µM, 0.002 µM and 0.03 µM.
The matching figures for `Cc1cccc(OC(c2ccc(Br)cc2)C2CCN(C(C)CCNC(=O)c3c(Cl)cncc3Cl)CC2)n1` (mixture of isomers): 6.5 µM, 1.55 µM and 0.22 µM.
For the compound `CC(CCNC(=O)c1c(Cl)cncc1Cl)N1CCC(C(Oc2ccc(C(F)(F)F)cc2)c2ccc(C(F)(F)F)cc2)CC1` (mixture of isomers), the CC50 in series [1] stood at 3.1 µM. Moreover, the half-maximal inhibitory concentration (IC50) in series [2] was > 1.23 µM.
The like results for `CC(CCNC(=O)c1c(Cl)cncc1Cl)N1CCC(C(Oc2cccc(C(=O)O)n2)c2ccc(C(F)(F)F)cc2)CC1` (mixture of isomers) were, in that order, 28.7 µM and > 28.7 µM.
`COC(=O)c1cccc(OC(c2ccc(C(F)(F)F)cc2)C2CCN(C(C)CCNC(=O)c3c(Cl)cncc3Cl)CC2)n1` (mixture of isomers) showed a CC50 in series [1] of 14.6 µM. Also, the figures for the IC50 in series [2] and in series [3] were 0.52 µM and 1.05 µM, respectively.
The like results for `Cc1ccnc(OC(c2ccc(Br)cc2)C2CCN(C(C)CCNC(=O)c3c(Cl)cncc3Cl)CC2)c1` (mixture of isomers) were, in that order, 32.5 µM, 1.96 µM and 0.14 µM.
The matching figures for `Cc1ccnc(OC(c2ccc(C(F)(F)F)cc2)C2CCN(C(C)CCNC(=O)c3c(Cl)cncc3Cl)CC2)c1` (mixture of isomers): 33.6 µM, > 6.72 µM and 0.05 µM.
The like results for `CC(CCNC(=O)c1c(Cl)cncc1Cl)N1CCC(C(Oc2ccccc2)c2ccc(Br)cc2)CC1` (stereo not given) were, in that order, 31.7 µM, > 1.3 µM and 0.13 µM.
In series [1], `CC(CCNC(=O)c1c(Cl)cncc1Cl)N1CCC(C(=O)c2ccc(Br)cc2)CC1` (stereo not given) showed a CC50 of 189 µM. The half-inhibitory concentration (IC50) in series [2] was found to be 32.6 µM.
For the compound `CC(CCNC(=O)c1c(Cl)cncc1Cl)N1CCC(C2=NOCc3cc(Br)ccc32)CC1` (stereo not given), half-maximal cytotoxicity in series [1] (CC50) was put at 185 µM. Also, the IC50 in series [2] was > 7.4 µM; in series [3] it was 12.3 µM.
The matching figures for `CCO/N=C(/c1ccc(Br)cc1)C1CCN(C(C)CNC(=O)c2c(C)cc[n+]([O-])c2C)CC1` (stereo not given): 182 µM, > 36.4 µM and 17 µM.
`Cc1cccnc1OC(c1ccc(C(F)(F)F)cc1)C1CCN(C(C)CCNC(=O)c2c(Cl)cncc2Cl)CC1` (mixture of isomers) registered a CC50 in series [1] of 33 µM. Also, the IC50 in series [2] was determined as 2.95 µM; in series [3], 0.06 µM.
The like results for `CC(CCNC(=O)c1c(Cl)cncc1Cl)N1CCC(C2(c3ccc(C(F)(F)F)cc3)Cc3ccccc3O2)CC1` (stereo not given) were, in that order, 33.8 µM, 0.22 µM and 0.04 µM.
In series [1], `COc1cccc(OC(c2ccc(C(F)(F)F)cc2)C2CCN(C(C)CCNC(=O)c3c(Cl)cncc3Cl)CC2)n1` (mixture of isomers) returned a CC50 of 32.7 µM. Also, the IC50 in series [2] was > 1.3 µM.
`CCO/N=C(/c1ccc(Br)cc1)C1CCN(C(C)(C)CCNC(=O)c2c(Cl)cncc2Cl)CC1` returned a CC50 in series [1] of 34 µM. In addition, the results for the IC50 in series [2] and in series [3] were > 6.81 µM and 1.76 µM, respectively.
Regarding `CCO/N=C(/c1ccc(Br)cc1)C1CCN(C(CC)CCNC(=O)c2c(C)cc[n+]([O-])c2C)CC1` (stereo not given), in series [1], the CC50 was > 178 µM. Besides, the concentration for half-maximal inhibition (IC50) in series [2] is > 32.8 µM.
The matching figures for `CC(CCNC(=O)c1c(Cl)cncc1Cl)N1CCC(C(Oc2cccc(C(F)(F)F)c2)c2ccc(C(F)(F)F)cc2)CC1` (mixture of isomers): 7 µM and 0.03 µM.
For the compound `CCO/N=C(/c1ccc(Br)cc1)C1CCN(C(C)CCNC(=O)c2c(Cl)cncc2Cl)CC1` (stereo not given), in series [1], the CC50 came to 33.8 µM. Moreover, the IC50 was > 6.7 µM in series [2] and 0.13 µM in series [3].
The matching figures for `CC(CCNC(=O)c1c(Cl)cncc1Cl)N1CCC(C(Oc2ncccc2Cl)c2ccc(C(F)(F)F)cc2)CC1` (mixture of isomers): 16.7 µM, 0.08 µM and 0.14 µM.
